“Also recorded” adds a separate entry of the source.
How the values were obtained:
SH-SY5Y cells = assay: LDH release assay; type: cell-based, human
Protocol: Aβ is known to be toxic toward neurons and neuronally derived cells (I. Benilova, et al., 2012, cited supra). To corroborate the toxicity of Aβ, we prepared oligomers of Aβ42 and studied their toxicity toward a human neuroblastoma cell line, SH-SY5Y. Aβ oligomers were prepared according to the procedure developed by Teplow and coworkers using recombinantly expressed Aβ42 pretreated with NH4OH (purchased from rPeptide) (D. B. Teplow, Methods Enzymol. 2006 413, 20-33; and Y. Fezoui, et al., Amyloid. 2000 7, 166-178; the disclosures of which are incorporated herein by reference). Under the conditions of the oligomer preparation, Aβ42 forms predominantly monomer, trimer, and tetramer as assessed by SDS-PAGE (FIG. 28A). It was also observed that bands migrated with molecular weights consistent with a pentamer and hexamer. SH-SY5Y cells were treated with varying concentrations of Aβ42, and toxicity was evaluated using a lactate dehydrogenase (LDH) release assay. Aβ42 increased LDH release in a dose-dependent manner at concentrations as low as 2.5 μM, corroborating the toxicity of Aβ42 (FIG. 28B).
It was hypothesized that trimers 3 and 4 may elicit toxicity similarly to Aβ42. The toxicities of trimers 3 and 4 towards SH-SY5Y cells were evaluated using an LDH assay, using deionized water (vehicle) and peptides 1 and 2 as controls. Trimer 4 increased LDH release in a dose-dependent manner at concentrations as low as 1.5 μM, indicating toxicity toward SH-SY5Y cells (FIG. 29A). LDH release was observed as early as 48 h after addition to the cells and reached a maximum after 72 h.
Many oligomers formed by full-length Aβ are toxic toward cells (I. Benilove, E. Karan, and B. De Strooper, Nat. Neurosci. 2012 15, 349-357; and M. E. Larson and S. E. Lesne J. Neurochem. 2012 120, 125-139; the disclosures of which are incorporated herein by reference). To test whether the oligomers formed by peptide 8 are also toxic, the toxicity of peptide 8 toward neuronally derived SH-SY5Y cells were evaluated using a lactate dehydrogenase (LDH) release assay. Peptide 8 and 10 were compared to investigate how the hexamer-forming Aβ16-36-derived peptide compares to a non-oligomerizing homologue. The toxicity of peptides 2 and 11 were also evaluated to better understand the relationship between oligomerization and toxicity.
The toxicities of peptides 1 and […], and trimers 3 and 4 toward SH-SY5Y cells were assessed by LDH release and caspase-3 activation assays. Cells were incubated in the presence or absence of equivalent concentrations of peptides 1 or 3, or trimers 3 and 4 for 72 h in 96-well plates. The LDH release assay was performed using the Pierce LDH Cytotoxicity Assay Kit from Thermo Scientific. The caspase-3 assay was performed using the Roche APO-One Homogeneous Caspase-3/7 Assay. Experiments were performed in replicates of five and an additional 10 wells were used for controls. Cells were cultured in the inner 60 wells (rows B-G, columns 2-11) of the 96-well plate. DMEM:F12 media (100 μL) was added to the outer wells (rows A and H, columns 1 and 12), in order to ensure the greatest reproducibility of data generated in the inner wells.
A 10 mg/mL stock solution of peptides 1 or […], or trimers 3 and 4 was prepared gravimetrically by dissolving 1 mg of each compound in 100 μL of deionized water that was either filtered through a 0.2 μm syringe filter or autoclaved. The stock solution was used to create 180 μM working solutions of peptides 1 or 3, or 60 μM working solutions of trimers 3 and 4 (these solutions contain equivalent concentrations of peptide). The 180 μM working solutions of peptides 1 and 2 were serially diluted with deionized water to create 90 μM working solutions of peptides 1 and 2. The 60 μM working solutions of trimers 3 and 4 were serially diluted with deionized water to create 30 μM, 15 μM, and 7.5 μM working solutions of trimers 3 and 4.
SH-SY5Y cells were plated in a 96-well plate at 30,000 cells per well. […]

[1] = size exclusion chromatography in Tris buffer; type: physicochemical
Source text: The elution profile of peptide 8 was compared to the size standards vitamin B12, aprotinin, and cytochrome c, as well as peptide 2. Peptide 8 elutes as a broad peak with three distinct humps (FIG. 41B). […] Peptide 2 elutes as two distinct peaks: a larger peak with an elution volume consistent with the molecular weight of a dimer, and a smaller peak with an elution volume consistent with the molecular weight of a trimer (FIG. 41B). […]

[2] = Tricine SDS-PAGE with silver staining; type: physicochemical
Source text: Trimer 3 migrates as a single band at a molecular weight consistent with a hexamer. Trimer 4, in contrast, migrates as two distinct bands: a band consistent with the molecular weight of a dodecamer, and a band consistent with the molecular weight of a trimer.
Peptide 8 assembles to form a hexamer in SDS-PAGE. […] To further confirm the oligomerization state of […], it was compared to covalent trimers 3 and 4 (FIGS. 19A and 19B), which was previously determined to migrate respectively as 10.6 kDa hexamers and 21.2 kDa dodecamers in equilibrium with the 5.3 kDa trimers. Peptide 8 migrates at the same molecular weight as the hexamer band of trimer 3, providing further evidence that peptide 8 assembles to form a hexamer in SDS-PAGE.
The oligomerization of peptides 1 and 2 and trimers 3 and 4 was studied by Tricine SDS-PAGE.
Each peptide or trimer was dissolved in deionized water to a concentration of 10 mg/mL. An aliquot of the 10 mg/mL solutions was diluted with deionized water to create 2 mg/mL solutions of peptides 1 and 2, or 0.12 mg/mL solutions of trimers 3 and 4. The […] of peptides 1 and 2, as well as the 0.12 mg/mL solutions of trimers 3 and 4 were further diluted with 2×SDS-PAGE loading buffer (100 mM Tris buffer at pH 6.8, 20% (v/v) glycerol, and 4% SDS) to create 1 mg/mL working solutions of peptides 1 and 2, and 0.06 mg/mL working solutions of trimers 3 and 4. A 5 μL aliquot of each working solution was run on a 16% polyacrylamide gel with a 4% stacking polyacrylamide gel. The gels were run at a constant 60 volts at 4° C.
Staining with silver nitrate was used to visualize peptides 1 and 2 and trimers 3 and 4 in the SDS-PAGE gel. Briefly, the gel was removed from the casting glass and rocked in fixing solution (50% (v/v) methanol and 5% (v/v) acetic acid in deionized water) for 20 min. Next, the fixing solution was discarded and the gel was rocked in 50% (v/v) methanol for 10 min. Next, the 50% methanol was discarded and the gel was rocked in deionized water for 10 min. Next, the water was discarded and the gel was rocked in 0.02% (w/v) sodium thiosulfate in deionized water for 1 min. The sodium thiosulfate was discarded and the gel was rinsed with deionized water (2×). After the last rinse, the gel was submerged in chilled 0.1% (w/v) silver nitrate in deionized water and rocked at 4° C. for 20 min. Next, the silver nitrate solution was discarded and the gel was rinsed with deionized water (2×). To develop the gel, the gel was incubated in developing solution (2% w/v sodium carbonate, 0.04% formaldehyde until the desired intensity of staining was reached (˜1-3 min). When the desired intensity of staining was reached, the development was topped by discarding the developing solution and submerging the gel in 5% acetic acid.

Row | Substance | lowest concentration with increased LDH release / toxicity (concentrations as low as) (SH-SY5Y cells; SH-SY5Y cells) [µM] | oligomer size ([1]; SEC) | oligomer state consistent with SEC elution volume ([1]; absence of SDS) | dose dependence of LDH release (SH-SY5Y cells; 50, 100 and 200 μM) | LDH release / toxicity toward SH-SY5Y cells, in words (SH-SY5Y cells; SH-SY5Y cells) | oligomer state by migration in SDS-PAGE [2]
1 | Aβ42: oligomers prepared from recombinantly expressed Aβ42 pretreated with NH4OH (purchased from rPeptide) [reference compound] | 2.5 |  |  |  |  | 
2 | peptide 8: Aβ16-22 and Aβ30-36 β-strands linked by two δOrn turn units, N-methyl on Phe19, native Met35 (Seq. ID 33-34) | 50 | monomer, dimer,; also recorded: trimer | dimers and trimers; also recorded: monomer, dimer, and trimer | No dose dependence | toxic | hexamer

Source: patent US11319348B2, “Synthetic beta-amyloid peptides capable of forming stable antigenic oligomers” (The Regents of the University of California, priority 2016, dated 2022)
